Legend:
APP23 mice [1] = assay: Hippocampal telemetric EEG recordings (spikes, cross frequency coupling); type: in vivo, mouse; details: for amplitude phase in EEG recordings / modulation index of cross frequency coupling / spike frequency / hypersynchronous discharges in EEG: n=8; for spike frequency / hypersynchronous discharges in EEG: i.p., 2 hours pre vs 2 hours post administration
Procedure: (§1) FIG. 4. LIMK1 inhibition reduced susceptibility to induced seizures and mitigated neuronal network hypersynchronicity and memory deficits in a mouse model of Alzheimer's disease. (A) Excitotoxic seizures were induced by acute intraperitoneal injection of 50 mg/kg body weight pentylenetetrazole (PTZ) followed by timing and scoring (0=no seizures to 7=terminal status epilepticus) of seizure development. Mice were treated with vehicle or 10 mg/kg body weight LIMK1 inhibitor (LIMKi) intraperitoneally 30 minutes prior to seizure induction. […] Only vehicle-treated mice develop severe seizure stages over time (i.e. score=5). […] (B) Compound hippocampal electroencephalography (EEG) recordings over 4 hours in non-transgenic (wt) and APP transgenic (APP23) mice including 2 hours before (Pre) and 2 hours after (Post) LIMKi or vehicle administration. Time of intraperitoneal LIMKi and vehicle administration is indicated with an arrow. […] Frequent spikes pre and post vehicle administration in APP23 mice. In contrast, LIMKi injection mitigates spike activity in APP23 post injection. […] (E) Chronic Limkl inhibition reverts memory deficits in AD mice. APP23 mice develop memory deficits in the Morris water maze (MWM) paradigm at 3 months of age. Treatment with 10 mg/kg LIMKi i.p. (3-4 times per week) was initiated at 3 months of age and continued for =4 months before MWM testing at 7 months of age. […] For bar graphs in (C) and (E), from left to right: non-Tg +vehicle; non-Tg+LIMKi; APP23+vehicle; APP23+LIMKi.
Electroencephalography. Hippocampal EEG recordings were done with implanted telemetric electrodes (D.S.I.) as previously described (Ittner et al., 2014, Acta neuropathologica communications 2, 149). All recordings were done with mice individually housed in their home cages one week after implantation of transmitters. Compound administration was done intraperitoneally during transient restraining of mice. Vehicle for the LIMK1 inhibitor LIMKi contained hydroxypropyl methylcellulose 606 (HPMC 606) with polyvinylpyrrolidone k17 (PVP k17) and tween 80 in a proportion of 0.5%, 0.5%, 0.1%, respectively. Spike analysis was done with the Neuroscore software module (D.S.I.) as previously described (Ittner et al., 2016, Science 354, 904-908). Cross frequency coupling of theta and gamma waves was performed as previously described (Ittner et al., 2016, Science 354, 904-908).

[2] = system: C57B^1/6 primary mouse neurons; assay: Aβ toxicity in cultured primary neurons (dendritic spine loss, cell viability); type: cell-based; details: pre-treatment, 0.05 μM oligomeric Aβ
Procedure: C57B^1/6 primary mouse neurons were treated with Compound 1 shown below (also referred to herein as LIMKi) together with 0.05 μM oligomeric Aβ (oAβ ) and determined loss of dendritic spines and cell viability.
Aβ treated neurons presented with loss of spines and reduced viability. […] Next, the inventors determined the potential short-term effects of Compound 1 in vivo. […] Next, the inventors tested the effects of acute Compound 1 administration on neuronal network activity in APP23 mice. […] Furthermore, CFC 1 hour after Compound 1 administration was re-established (data not shown). […] Thus, inhibition of LIMK1 with Compound 1 conferred protection from Aβ toxicity in neurons and from excitotoxicity in vivo. Furthermore, treatment of APP23 with Compound 1 corrected network aberrations including CFC.

LIMK1 = molecular target: T1, LIMK1 (Homo sapiens, UniProt P53667); assay: LIMK1 activity assay (commercial, Promega); type: biochemical; details: in vitro; LIMKi at 100 μm, 10 μm, 1 μm, 0.1 μm; DMSO did not inhibit
T1 construct: purchased Promega
Text: LIMK1 activity assay. LIMK1 activity in the absence or presence of different concentrations of LIMKi (or DMSO) was determine with a commercial assay following the manufacturer's instructions (Promega).

C57B^1/6 mice = assay: PTZ-induced excitotoxic seizure model; type: in vivo, mouse; details: for mean seizure severity: n=9
Procedure: as §1
Seizure model. Excitotoxic seizure were induced in mice by intraperitoneal injection of 50 mg/kg body weight pentylenetetrazole followed by observation in a square area (40×40 cm). Scoring of seizures was done as previously described (Ittner et al., 2010, Cell 142, 387-397). For LIMKi-treated mice, scoring was adjusted by combining the severe seizure scores 5 to 7 into a single score of 5. For both scales, minor to moderate seizures are reflected by scores <5.

APP23 mice [3] = assay: Morris water maze memory testing after chronic treatment; type: in vivo, mouse
Procedure: as §1
Memory testing. Memory of mice was assessed in the water T maze paradigm and Morris water maze following published protocols (Ittner et al., 2010, Cell 142, 387-397; Ke et al., 2015, Acta Neuropathol 130, 661-678). Chronic treatment of mice was done by 3-4 times per week intraperitoneal injection of 10 mg/kg LIMKi or vehicle (0.5% hydroxypropyl methylcellulose 606 (HPMC 606), 0.5% polyvinylpyrrolidone k17 (PVP k17) and 0.1% tween 80) starting at 3 months of age and continued until 7 months of age. All mice were acclimatized to the test rooms prior to testing.
Encouraged by the short-term effects of Compound 1 in neurons and APP23 mice (Example 3), the inventors tested whether long-term treatment could improve memory deficits in APP23 mice. 3-month old APP23 mice were treated for four months before being subjected to memory testing in the MWM. APP23 mice present with significant memory deficits at 3 months of age, that progress with age (Ittner et al., 2016, Science 354:904-908). An intermittent treatment schedule was chosen to avoid potential inhibition of astrocyte-mediated AP clearance that could mask therapeutic effects. At 7 months of age, vehicle-treated APP23 mice presented with significant memory deficits as compared to vehicle-treated non-transgenic mice (FIG. 4E).

[4] = APP23 mice, 1 hour after administration
[5] = APP23 mice, 1 hour after administration, listed as LIMKi
[6] = 10 mg/kg i.p. 30 minutes prior to 50 mg/kg PTZ, vs vehicle

T1 sequence (P53667 whole entry): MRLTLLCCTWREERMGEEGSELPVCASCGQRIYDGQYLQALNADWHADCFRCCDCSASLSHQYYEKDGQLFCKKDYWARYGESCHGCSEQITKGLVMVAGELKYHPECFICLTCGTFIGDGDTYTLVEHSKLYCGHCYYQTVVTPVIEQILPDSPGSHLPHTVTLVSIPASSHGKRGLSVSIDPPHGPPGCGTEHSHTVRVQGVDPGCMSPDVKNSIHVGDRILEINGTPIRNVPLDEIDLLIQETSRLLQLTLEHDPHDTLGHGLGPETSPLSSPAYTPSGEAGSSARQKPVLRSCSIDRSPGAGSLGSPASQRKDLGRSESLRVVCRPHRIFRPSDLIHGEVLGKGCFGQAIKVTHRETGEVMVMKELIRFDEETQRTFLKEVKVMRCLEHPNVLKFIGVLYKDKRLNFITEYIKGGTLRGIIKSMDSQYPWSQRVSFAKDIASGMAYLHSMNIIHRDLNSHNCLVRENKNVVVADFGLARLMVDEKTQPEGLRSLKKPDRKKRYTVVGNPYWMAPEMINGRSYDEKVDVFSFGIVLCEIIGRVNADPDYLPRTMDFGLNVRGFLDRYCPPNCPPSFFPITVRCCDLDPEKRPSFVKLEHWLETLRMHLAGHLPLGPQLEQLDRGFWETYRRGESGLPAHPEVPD

Structure (SMILES): Cc1c[nH]c2ncnc(N3CCN(/C(=N\C#N)Nc4cccc(Br)c4)[C@@H](C)C3)c12 [Compound 1]
- cross frequency coupling (CFC) (APP23 mice [1]; APP23 mice, 1 hour after administration, data not shown): re-established
- amplitude phase in EEG recordings (APP23 mice [1]; [4]): normalized
- modulation index of cross frequency coupling (APP23 mice [1]; [4]): normalized
- amplitude phase in EEG recordings (APP23 mice [1]; [5]): corrected 1 hour after LIMKi delivery and no longer different from wt controls
- modulation index of cross frequency coupling (APP23 mice [1]; [5]): corrected 1 hours after LIMKi administration and no longer different from wt controls
- spike frequency / hypersynchronous discharges in EEG (APP23 mice [1]; APP23 mice): hypersynchronicity significantly decreased
- spike frequency / hypersynchronous discharges in EEG (APP23 mice [1]; APP23 mice, listed as LIMKi): significantly reduced spike frequency
- spike activity in EEG (APP23 mice [1]; non-transgenic (wt) mice, pre and post injection): No overt spike activity
- Aβ-induced death of cultured neurons (cell viability) [2]: dose-dependent protection
- Aβ-induced dendritic spine loss [2]: dose-dependent protection
- LIMK1 activity (LIMK1): inhibition of the kinase by LIMKi at all concentrations tested
- latency to develop severe seizures (C57B^1/6 mice; 10 mg/kg 30 minutes prior to PTZ, C57B1/6 mice): increased the latency to develop severe seizures
- latency to develop lower grade seizures (score<5) (C57B^1/6 mice; [6]): Delayed latency to develop lower grade seizures
- mean seizure severity (C57B^1/6 mice; [6]): significantly reduced mean seizure severity
- mean seizure severity (C57B^1/6 mice; 10 mg/kg i.p. 30 minutes prior to 50 mg/kg PTZ, vs vehicle, listed as LIMKi): Significantly reduced seizure severity
- time in target quadrant during MWM probe trials (APP23 mice [3]; APP23 mice, 10 mg/kg i.p. 3-4 times per week for 4 months, n=8-10): no significant differences to controls
- learning in Morris water maze (APP23 mice [3]; APP23 mice, 10 mg/kg i.p. 3-4 times per week from 3 to 7 months of age): improved learning of APP23 mice to vehicle control levels
- memory performance in MWM (APP23 mice [3]; APP23 mice, after four months of treatment, tested at 7 months of age): improved memory performance
- learning in Morris water maze (APP23 mice [3]; non-transgenic control mice, 10 mg/kg i.p. 3-4 times per week for 4 months, 10 mg/kg): delayed learning
- learning in Morris water maze (APP23 mice [3]; non-transgenic control mice, 10 mg/kg i.p. 3-4 times per week for 4 months, listed as LIMKi, 10 mg/kg): moderately delayed learning
